Data on five molecules can be found in patent US5827887A, “Biphenyl compounds” (Roussel Uclaf, priority 1995, dated 1998).

Molecules are shown by their SMILES.

The target in this assay is T1, human prostate 5-α-reductase (PH6) (Homo sapiens, UniProt P31213).
T1 construct: Homogenates of human prostates were used, obtained by radical prostatectomies; from tissue; host or cells: human prostate (benign hyperplasia, radical prostatectomy), homogenate, 140,000 g pellet
T1 sequence (P31213 1-254): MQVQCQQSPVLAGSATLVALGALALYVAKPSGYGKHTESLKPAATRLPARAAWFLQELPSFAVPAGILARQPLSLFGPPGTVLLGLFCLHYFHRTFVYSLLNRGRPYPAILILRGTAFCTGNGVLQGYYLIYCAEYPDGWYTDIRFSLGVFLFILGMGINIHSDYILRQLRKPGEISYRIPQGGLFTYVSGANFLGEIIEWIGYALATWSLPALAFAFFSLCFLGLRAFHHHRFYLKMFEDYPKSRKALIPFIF
The assay is described as follows: 5-α-reductase activity in vitro, HPLC of 5-α reduced metabolites of tritiated testosterone, homogenates of human prostates (PH6). It counts as biochemical. The conditions noted are these: human prostate homogenate; testosterone substrate; pH 5.5; 37° C., 30 minutes; read-out: IC50 of inhibition of the 5-α-reductase activity of the human prostate enzyme (PH6). As to the method:
The test for measuring the 5-α-reductase activity took place in vitro by incubating the enzyme and its substrate (testosterone) and measuring by HPLC chromatography the quantity of 5-α reduced metabolites formed (dihydro-testosterone (DHT) and 5-α-androstane-diol). Homogenates of human prostates were used, obtained by radical prostatectomies due to benign hyperplasia of the prostate (BHP): PH6.
The prostate was collected as soon as it left the operating theater suite and was packed in aluminum foil placed in a container filled with dry ice. In the laboratory, if the homogenate was not prepared immediately, the prostate could be kept at -80° C. The prostate was shredded over ice into very small pieces, which were homogenized in a medium A (20 mM of potassium phosphate, pH 6.5; 0.32M of sucrose; 1 mM of dithiotreitol (DTT); 50 uM NADPH), in a polytron, then in a Potter glass flask. After centrifuging at 140,000 g for 60 minutes at 4° C., the pellets obtained were suspended in 10 to 20 ml of medium B ([…] of potassium phosphate, pH 6.5; 20% of glycerol; 1 mM of dithiothreitol). The medium was distributed in Nunc tubes kept at -80° C. Determination of the proteins was carried out on a small amount of homogenate for its future use in the test and it was therefore assured of having at least 10 mg of proteins/ml of homogenate.
Incubation was carried out at a pH of 5.5 at the rate of 1 ml of medium/tube in the presence of citrate (normal medium and pH of the prostate).
1) Preparation of the substrate (S) which was the mixture of "unlabelled" testosterone and "tritiated" testosterone with an isotopic dilution of 100 in a trisodium citrate buffer pH 5.0
a) 40 mM of trisodium citrate buffer: 11.76 g of 3 Na-citrate, 2H2 O (Merk ref. Art 6448) were weighed and dissolved in 1 liter of distilled water (Milli-Q) and the solution was adjusted to pH of 5.0.
b) mixture of "unlabelled" testosterone and "tritiated testosterone with an isotopic dilution of 100: To obtain a solution of testosterone of 1 mM, 2.88 mg of "unlabelled" testosterone were weighed and dissolved in 10 ml of ethanol. This solution was diluted to 0.99/1000, that is 9.9 μl in 10 ml of citrate buffer (=10^-6 M solution). 9 μl of ^3 H-testosterone (NET-370) were added to 10 ml of the preceding solution (=isotopic dilution of 100). The substrate (S) was ready.
2) Preparation of enzyme+DTT+NADPH mixture
a) Potassium phosphate buffer, 40 mM, pH 6.5:
5.44 g de KH2 PO4 (Riedel de Haen ref. 30407) was weighed and dissolved in 1 liter of distilled water (Milli-Q) and the solution was adjusted to a pH of 6.5.
3.1 mg of DTT were weighed and dissolved in 1 ml of phosphate buffer.
8.33 mg of NADPH were weighed and dissolved in 1 ml of phosphate buffer.
d) enzyme+DTT+NADPH mixture (E):
For one test, 0.5 mg of proteins of prostate homogenate, 50 μl of DTT and 50 μl of NADPH were mixed together at 4° C. and the mixture was made up to 500 μl with the phosphate buffer.
3) Incubation (5α-reduction)
One tube was prepared for each test and 500 μl of (S) and 10 μl of inhibitor at the desired concentration (or ethanol for the controls) are put in each tube. The tubes containing mixture (S) and the flask containing mixture (E) were pre-incubated in a water bath for 3 to 5 minutes.
To start the reaction, 500 μl of E were transferred rapidly into each tube containing S+the inhibitor and the mixture was incubated at 37° C. with gentle stirring for 30 minutes. […]
For orientation: IC50 means the midpoint of a concentration-inhibition curve. Turning to `CC(C)N(C(=O)COc1c(F)cc(-c2ccc(C(=O)O)cc2)cc1[N+](=O)[O-])C(C)C` [Example 4, 4'-[2-[bis-(isopropyl)-amino]-2-oxoethoxy]-3'-fluoro-5'-nitro-(1,1'-biphenyl)-4-carboxylic acid], the IC50 is 0.0096 µM. As to `O=C(COc1ccc(-c2ccc(C(=O)O)cc2)cc1)NC(c1ccccc1)(c1ccccc1)c1ccccc1` [Example 5, 4'-[2-oxo-2-([tribenzyl)-amino]-ethoxy]-(1,1'-biphenyl) -4-carboxylic acid], the IC50 turned out to be 0.092 µM. For the molecule `O=C(COc1c(F)cc(-c2ccc(C(=O)O)cc2)cc1[N+](=O)[O-])NC(c1ccccc1)(c1ccccc1)c1ccccc1` [Example 6, 3'-fluoro-5'-nitro-4'-[2-oxo-2-[(tribenzyl)-amino]-ethoxy]-(1,1'-biphenyl)-4-carboxylic acid], the IC50 was 0.036 µM.

As to `CCc1cc(OCC(=O)N(C(C)C)C(C)C)ccc1-c1ccc(C(=O)O)cc1` [Example 11, 4'-(2-[bis-(isopropyl)-amino)-2-oxoethoxy]-2'-ethyl-(1,1'-biphenyl)-4-carboxylic acid], the IC50 was 0.077 µM.

For the molecule `CCc1cc(-c2ccc(C(=O)O)cc2)ccc1OCC(=O)N(C(C)C)C(C)C` [Example 12, 4'-[2-[bis-(isopropyl)-amino)-2-oxoethoxy]-3'-ethyl-(1,1'-biphenyl)-4-carboxylic acid], the IC50 stood at 2 µM.
